Tests used:
LN229 MGMT+ shMSH6 cells = assay: Short-term viability assay, LN229 MGMT+ shMSH6; type: cell-based; details: Homo sapiens, LN-229, Table III, read-out: IC50 against LN229 cell lines, MGMT MMR−
Method: The activity of KL-50 in MGMT-LN229 cells engineered to lack expression of other key MMR proteins including MSH6, MLH1, PMS2, and MSH3 was also confirmed. Western blotting was performed in LN229 MGMT+/−cells with stable expression of shRNA targeting MSH6, MLH1, PMS2, or MSH3 to confirm depletion of the shRNA targets. In shMSH6 cells, there was reduced expression of MSH2, and in shMLH1 cells, there was loss of PMS2, due to destabilization in the setting of loss of their heterodimeric partners. GAPDH serves as loading control. […] Short-term viability assay curves for KL-50 in LN229 MGMT+/−, MMR+/shMSH6 cells. […] Short-term viability assay curves for KL-50 in LN229 MGMT+/−, MMR+/shMLH1 cells. […] Short-term viability assay curves for KL-50 in LN229 MGMT+/−, MMR+/shPMS2 cells. […] Short-term viability assay curves for KL-50 in LN229 MGMT+/−, MMR+/shMSH3 cells.
MMR Protein shRNA Knockdown. pGIPZ lentiviral shRNA vectors targeting MSH2, MSH6, MLH1, PMS2, and MSH3 were purchased from Horizon Discovery (Table IV). […]
Short-term Cell Viability Assay. […] Cells were imaged on a Cytation 3 imaging reader (BioTek) and quantified using CellProfiler software. For in vitro short-term growth delay experiments, IC50 values were determined from the nonlinear regression equation, [inhibitor] vs normalized response with variable slope.

[1] = test system: DNA repair foci in LN229 MGMT+/−, MMR+/− cells; assay: Immunofluorescence foci assays (γH2AX, 53BP1, pRPA); type: cell-based, human; details: 20 μM, 2 to 48 h
Method: FIGS. 5A-5K: KL-50 activates DNA damage response pathways and cycle arrest in MGMT-cells, independent of MMR, and induces sensitivity in cells deficient in ICL or HR repair. […] Columns, mean; error bars, SD; n 5 technical replicates. FIGS. 5D-5K: KL-50 induces activation of the ATR-CHK1 and ATM-CHK2 signaling axes and delayed DNA repair foci formation in MGMT-deficient cells, independent of MMR status. […] Treatment with 1 μM doxorubicin for 24 h (Doxo) served as a positive control for p-CHK1 activation. […] Points, mean % cells with >10 foci; error bars, SD; n >5 technical replicates. […] Points, % cells with 10 foci, n>250 cells per condition.
Immunofluorescence Foci Assays. High-throughput immunofluorescence foci assays were performed at the Yale Center for Molecular Discovery (YCMD). Cells were seeded at 2000 cells/well in black polystyrene flat bottom 384-well plates (Greiner Bio-One) and allowed to adhere overnight. Compound addition was performed utilizing a Labcyte Echo 550 liquid handler (Beckman Coulter), with 6 replicates per test condition and 12 replicates per control condition. Following drug incubation, cells were fixed and stained for phospho-SER139-H2AX (yH2AX), 53BP1, or phospho-SER33-RPA2 (pRPA) as follows. […]

With NC(=O)c1ncn2c(=O)n(CCF)nnc12 [KL-50] the IC50 (LN229 MGMT+ shMSH6 cells) was 362 ± 41 µM and the “γH2AX, 53BP1, pRPA foci formation” value [1] was “induced a maximal foci response at 48 h, specifically in MGMT-cells and irrespective of MMR status”.

For Cn1nnc2c(C(N)=O)ncn2c1=O [TMZ, 4-methyl-5-oxo-2,3,4,6,8-pentazabicyclo[4.3.0]nona-2,7,9-triene-9-carboxamide, reference compound], the IC50 (LN229 MGMT+ shMSH6 cells) was 929 ± 201 µM and the “γH2AX, 53BP1, pRPA foci formation” value [1] was “induced a comparable response in MGMT-cells, but this was abolished in the absence of functional MMR”.
